Experimental data: US10253081B2, “Glucagon analogues” (Zealand Pharma A/S, priority 2012, dated 2019)
*1 amine or outer side, *2 acyl side, *3 side chain or, on linkers, in order; H or OH if unused. Where a SMILES comes first, the peptide text is derived from it. Side-chain parts run from the residue outwards. [ ]: non-standard residue; d: D form. The star is where a group is joined. γGlu = O=C(O)[C@H](CCC(=O)[*:2])N[*:1]; Palmitoyl = CCCCCCCCCCCCCCCC(=O)*; Aib = CC(C)(N)C(=O)O

Experiments:
Type in all cases: cell-based
[1] = target: T1, endogenous glucagon receptor (Rattus norvegicus, UniProt P30082); assay: Agonistic activity on endogenous glucagon receptor (glycogen synthesis rate in primary rat hepatocytes); details: inhibition of glycogen synthesis rate, 3 hours, read-out: EC50 GLP-1R Rat hepat.
T1 construct: Agonistic activity of the test compounds on endogenous glucagon receptor; endogenous in cells; host or cells: primary rat hepatocytes
T1 sequence (P30082 27-485): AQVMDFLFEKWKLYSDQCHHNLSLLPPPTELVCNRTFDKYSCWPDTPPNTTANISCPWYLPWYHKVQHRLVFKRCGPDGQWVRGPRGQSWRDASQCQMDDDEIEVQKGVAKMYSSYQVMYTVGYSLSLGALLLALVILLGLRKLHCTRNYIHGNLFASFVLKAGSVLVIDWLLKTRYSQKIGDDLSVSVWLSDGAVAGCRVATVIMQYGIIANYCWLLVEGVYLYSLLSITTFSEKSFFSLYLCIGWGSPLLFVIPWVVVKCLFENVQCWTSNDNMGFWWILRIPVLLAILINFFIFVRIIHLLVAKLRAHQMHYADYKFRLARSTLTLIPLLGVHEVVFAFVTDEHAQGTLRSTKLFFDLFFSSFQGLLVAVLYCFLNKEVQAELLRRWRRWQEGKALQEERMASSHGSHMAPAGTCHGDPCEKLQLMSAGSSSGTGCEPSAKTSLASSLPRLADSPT
Experimental: Agonistic activity of the test compounds on endogenous glucagon receptor was determined by measuring their effect on rate of glycogen synthesis in primary rat hepatocytes. Upon activation of the glucagon receptor, an inhibition of the glycogen synthesis rate is expected. Rate of glycogen synthesis was determined by counting the amount of radioactively labeled glucose incorporated into the cellular glycogen stores in a defined period of time.
Primary rat hepatocytes were cultured at a density of 40,000 cells/well in a 24-well plate for 24 hours at 37° C. and 5% CO2.
Medium was discarded and the cells washed with PBS. 180 μL of KRBH-based buffer containing 0.1% BSA and glucose at a concentration of 22.5 mM was then added to the wells, followed by test compound and 40 μCi/ml D-[U14C] glucose (20 μL each). Incubation was continued for 3 hours.
At the end of the incubation period, the incubation buffer was aspirated and cells washed once with ice-cold PBS before lysis by incubation for 30 min at room temperature with 100 μL 1 mol/l NaOH.
Cell lysates were transferred to 96-well filter plates and glycogen precipitated by incubating the filter-plates for 120 min at 4° C. followed by washing the filter plates 4 times with ice-cold ethanol (70%). The resulting precipitates were filtered to dryness and the amount of incorporated ^14C-glucose determined by using a Topcount scintillation counter according to manufacturer's recommendations.
Wells with vehicle controls (0.1% (v/v) DMSO in KRBH buffer) were included as reference for non-inhibited glycogen synthesis (100% CTL). Wells without added D-[U^14C] glucose were included as controls for non-specific background signal (subtracted from all values). Endogenous glucagon peptide was used as a positive control.
All treatments were performed at least in triplicates.
Parameters calculated to describe the both the potency as well as the agonistic activity of each test compound on the endogenous glucagon receptor are pEC50 and % CTL. % CTL is determined by calculating the percentage of CPM/well in the presence of the test compound compared to the CPM/well of the vehicle control after subtracting the background CPM/well: [CPM/well(basal)−CPM/well(sample)]*100/[CPM/well(basal)−CPM/well(control)]
An activator of the glucagon receptor will result in an inhibition of the glycogen synthesis rate and will give % CTL values between 0% CTL (complete inhibition) and 100% CTL (no observable inhibition).
The resulting activity curves were plotted as absolute counts (unit: cpm/sample) over log (test compound concentration) and analyzed using the curve fitting program XLfit.
pEC50 (negative logarithmic value of EC50) reflects the potency of the test compound.
The terms EC50 and pEC50 quoted in relation to GLP-1R activation could equally be regarded as IC50 and pIC50 in relation to glycogen synthesis.

[2] = target: T2, endogenous GLP-1 receptors (Mus musculus, UniProt O35659); assay: Agonistic activity on endogenous GLP-1 receptor (cAMP, murine insulinoma cell line); details: intracellular cAMP, 15 minutes at 26° C.; read-out: EC50 GLP-1R (murine insulinoma cells)
T2 construct: Agonistic activity of the test compounds on endogenous GLP-1 receptors; endogenous in cells
T2 sequence (O35659 22-463): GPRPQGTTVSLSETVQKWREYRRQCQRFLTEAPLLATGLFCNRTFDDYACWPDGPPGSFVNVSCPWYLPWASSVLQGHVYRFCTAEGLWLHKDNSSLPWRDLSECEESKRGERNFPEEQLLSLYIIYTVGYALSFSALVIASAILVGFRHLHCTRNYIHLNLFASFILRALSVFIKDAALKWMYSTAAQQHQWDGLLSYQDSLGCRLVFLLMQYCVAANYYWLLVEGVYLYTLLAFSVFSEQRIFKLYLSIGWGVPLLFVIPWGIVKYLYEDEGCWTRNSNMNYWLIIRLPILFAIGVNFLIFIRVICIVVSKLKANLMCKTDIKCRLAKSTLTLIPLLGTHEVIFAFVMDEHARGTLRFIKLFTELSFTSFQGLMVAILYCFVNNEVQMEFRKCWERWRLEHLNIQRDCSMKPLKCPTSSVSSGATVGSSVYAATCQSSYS
Experimental: Agonistic activity of the test compounds on endogenous GLP-1 receptors was determined using a murine insulinoma cell line. Intracellular cAMP was used an indicator of receptor activation.
Cells were cultured for 24 h at a density of 10,000 cells/well in a 384-well plate. Medium was removed and 10 μL KRBH buffer (NaCl 130 mM, KCl 3.6 mM, NaH2PO4 0.5 mM, MgSO4 0.5 mM, CaCl2) 1.5 mM) containing test compound or GLP-1 (at increasing concentrations from […] to 100 nM) or solvent control (0.1% (v/v) DMSO) was added to the wells for 15 minutes at a temperature of 26° C.
The cellular cAMP content is measured using the AlphaScreen cAMP Functional Assay Kit (Perkin Elmer). Measurement was performed using the Envision (PerkinElmer) according to manufacturer's recommendations.
All measurements were performed in quadruplicate.
Results were converted into cAMP concentrations using a cAMP standard curve prepared in KRBH buffer containing 0.1% (v/v) DMSO. The resulting cAMP curves were plotted as absolute cAMP concentrations (nM) over log (test compound concentration) and analyzed using the curve fitting program XLfit.
Parameters calculated to describe the both the potency as well as the agonistic activity of each test compound on the endogenous GLP-1 receptors were:
pEC50 (negative logarithmic value of EC50, a concentration resulting in a half-maximal elevation of cAMP levels, reflecting the potency of the test compound);
Percent control (% CTL)(% cAMP elevation for each test compound concentration normalized based on the GLP-1-induced maximum cAMP response (100% CTL)).

[3] = target: T3, human glucagon receptor (Glucagon-R) (Homo sapiens, UniProt P47871); assay: Glucagon receptor efficacy assay (cAMP AlphaScreen, CHO cells); details: Table 1B; same protocol, different laboratory; read-out: EC50 hGCGR CHO-K1
T3 construct: expressed in transfected cells
T3 sequence (P47871 26-477): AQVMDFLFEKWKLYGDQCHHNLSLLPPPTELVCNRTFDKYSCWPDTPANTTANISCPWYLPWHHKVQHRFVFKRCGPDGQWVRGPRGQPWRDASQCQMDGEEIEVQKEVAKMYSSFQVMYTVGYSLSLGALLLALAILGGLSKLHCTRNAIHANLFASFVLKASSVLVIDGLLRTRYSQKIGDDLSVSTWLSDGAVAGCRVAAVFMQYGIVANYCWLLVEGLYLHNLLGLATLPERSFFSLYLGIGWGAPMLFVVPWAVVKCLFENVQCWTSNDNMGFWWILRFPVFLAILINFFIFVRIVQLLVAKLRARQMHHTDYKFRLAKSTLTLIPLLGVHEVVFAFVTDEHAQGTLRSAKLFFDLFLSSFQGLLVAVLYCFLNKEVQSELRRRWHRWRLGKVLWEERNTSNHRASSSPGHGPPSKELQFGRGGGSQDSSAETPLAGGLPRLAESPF
Excerpt: (§1) The cDNA encoding either the human glucagon receptor (Glucagon-R) (primary accession number P47871) or the human glucagon-like peptide 1 receptor (GLP-1R) (primary accession number P43220) were synthesized and cloned into a mammalian expression vector containing a Zeocin resistance marker.
(§2) The mammalian expression vectors encoding the Glucagon-R or the GLP-1-R were transfected into Chinese hamster ovary (CHO) cells by the Attractene method method. Stably expressing clones were obtained by Zeocin selection (250 μg/mL) upon limited dilution of cells resistant to the selection pressure. Glucagon-R and GLP-1-R cell clones expressing were picked, propagated and tested in the Glucagon-R and GLP-1-R efficacy assays as described below. One Glucagon-R expressing clone and one GLP-1-R expressing clone were chosen for compound profiling.
(§3) CHO cells expressing the human Glucagon-R, or human GLP-1-R were seeded 24 hours prior to the assay at 30,000 cells per well in 96-well microtiter plates in culture in 100 μl growth medium. On the day of analysis, growth medium was removed and the cells were washed once with 200 μl of assay buffer (Krebs-Ringer-buffer—KRBH). The buffer was removed and the cells were incubated for 15 min at room temperature in 10 μl KRBH (KRBH+10 mM HEPES, 5 mM NaHCO3, 0.1% (V/V) BSA) with 0.1 mM IBMX in deionized water containing increasing concentrations of test peptides. The reaction was stopped by the addition of lysis buffer (0.1% w/v BSA, 5 mM HEPES, 0.3% v/v Tween-20). After cell lysis for 10 min at room temperature, lysates were transferred to 384-well plates and 10 μl of acceptor/donorbead mixture as contained in the AlphaScreen™ cAMP Functional Assay Kit was added. After one hour of incubation at room temperature in the dark, the cAMP content was determined applying the AlphaScreen™ cAMP Functional Assay Kit from Perkin-Elmer according to manufacturer instructions. EC50 and relative efficacies compared to reference compounds (glucagon and GLP-1) were calculated applying computer aided curve fitting. The GLP-1/glucagon ratio is calculated as defined earlier.

[4] = target: T4, human glucagon-like peptide 1 receptor (GLP-1R) (Homo sapiens, UniProt P43220); assay: GLP-1 receptor efficacy assay (cAMP AlphaScreen, CHO cells); details: Table 1B; for Ratio GLP-1/Glucagon: EC50 [GLP-1R]/EC50 [Glucagon-R]; for EC50: same protocol, different laboratory, read-out: EC50 hGLP-1R CHO-K1
T4 construct: expressed in transfected cells
T4 sequence (P43220 24-463): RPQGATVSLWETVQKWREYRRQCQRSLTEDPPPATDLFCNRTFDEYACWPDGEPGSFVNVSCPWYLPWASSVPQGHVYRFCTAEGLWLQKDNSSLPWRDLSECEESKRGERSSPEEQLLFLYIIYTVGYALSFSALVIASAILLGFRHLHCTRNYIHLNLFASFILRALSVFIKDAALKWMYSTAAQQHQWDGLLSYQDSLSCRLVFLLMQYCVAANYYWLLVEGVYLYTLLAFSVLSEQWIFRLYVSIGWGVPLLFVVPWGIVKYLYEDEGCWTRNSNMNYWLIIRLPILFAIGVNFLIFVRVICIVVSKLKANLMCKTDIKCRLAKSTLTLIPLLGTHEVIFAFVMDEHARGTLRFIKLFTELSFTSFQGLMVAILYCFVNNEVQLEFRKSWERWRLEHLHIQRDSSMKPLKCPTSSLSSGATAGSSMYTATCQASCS
Excerpt: as §1, §2, §3

EC50 [1] [nM]	EC50 [2] [nM]	EC50 [3] [nM]	Ratio GLP-1/Glucagon [4]	EC50 [4] [nM]	SMILES
0.39	0.27	0.68	0.34	0.23	CCCCCCCCCCCCCCCC(=O)N[C@@H](CCC(=O)NCCCC[C@H](NC(=O)[C@H](CCC(=O)O)NC(=O)[C@H](CCC(=O)O)NC(=O)[C@H](CC(C)C)NC(=O)[C@H](Cc1ccc(O)cc1)NC(=O)[C@H](CCCCN)NC(=O)[C@H](CO)NC(=O)[C@H](Cc1ccc(O)cc1)NC(=O)[C@H](CC(=O)O)NC(=O)[C@H](CO)NC(=O)[C@@H](NC(=O)[C@H](Cc1ccccc1)NC(=O)[C@@H](NC(=O)CNC(=O)[C@H](CCC(N)=O)NC(=O)C(C)(C)NC(=O)[C@@H](N)Cc1c[nH]cn1)[C@@H](C)O)[C@@H](C)O)C(=O)N[C@@H](C)C(=O)N[C@@H](C)C(=O)N[C@@H](CCCCN)C(=O)N[C@@H](CC(=O)O)C(=O)N[C@@H](Cc1ccccc1)C(=O)N[C@H](C(=O)N[C@@H](CCC(=O)O)C(=O)N[C@@H](Cc1c[nH]c2ccccc12)C(=O)N[C@@H](CC(C)C)C(=O)N[C@@H](CCC(=O)O)C(=O)N[C@@H](CO)C(=O)N[C@@H](C)C(N)=O)[C@@H](C)CC)C(=O)O [Compound 20, H-H-Aib-QGTFTSDYSKYLEE-K(Hexadecanoyl-isoGlu)-AAKDFIEWLESA-NH2] (H-H[Aib]QGTFTSDYSKYLEEK([γGlu-Palmitoyl])AAKDFIEWLESA-NH2)
1.32	0.31	0.25	0.52	0.13	CCCCCCCCCCCCCCCC(=O)N[C@@H](CCC(=O)NCCCC[C@H](NC(=O)[C@H](CO)NC(=O)[C@H](CCC(=O)O)NC(=O)[C@H](CC(C)C)NC(=O)[C@H](Cc1ccc(O)cc1)NC(=O)[C@H](CCCCN)NC(=O)[C@H](CO)NC(=O)[C@H](Cc1ccc(O)cc1)NC(=O)[C@H](CC(=O)O)NC(=O)[C@H](CO)NC(=O)[C@@H](NC(=O)[C@H](Cc1ccccc1)NC(=O)[C@@H](NC(=O)CNC(=O)[C@H](CCC(N)=O)NC(=O)C(C)(C)NC(=O)[C@@H](N)Cc1c[nH]cn1)[C@@H](C)O)[C@@H](C)O)C(=O)N[C@@H](C)C(=O)N[C@@H](C)C(=O)N[C@@H](Cc1c[nH]cn1)C(=O)N[C@@H](CC(=O)O)C(=O)N[C@@H](Cc1ccccc1)C(=O)N[C@H](C(=O)N[C@@H](CCC(=O)O)C(=O)N[C@@H](Cc1c[nH]c2ccccc12)C(=O)N[C@@H](CC(C)C)C(=O)N[C@@H](CCC(=O)O)C(=O)N[C@@H](CO)C(=O)N[C@@H](C)C(N)=O)C(C)C)C(=O)O [Compound 23, H-H-Aib-QGTFTSDYSKYLES-K(Hexadecanoyl-isoGlu)-AAHDFVEWLESA-NH2] (H-H[Aib]QGTFTSDYSKYLESK([γGlu-Palmitoyl])AAHDFVEWLESA-NH2)
0.18	0.99	0.14	6.2	0.87	CCCCCCCCCCCCCCCC(=O)N[C@@H](CCC(=O)NCCCC[C@H](NC(=O)[C@H](CCC(=O)O)NC(=O)[C@H](CCC(=O)O)NC(=O)[C@H](CC(C)C)NC(=O)[C@H](Cc1ccc(O)cc1)NC(=O)[C@H](CCCCN)NC(=O)[C@H](CO)NC(=O)[C@H](Cc1ccc(O)cc1)NC(=O)[C@H](CC(=O)O)NC(=O)[C@H](CO)NC(=O)[C@@H](NC(=O)[C@H](Cc1ccccc1)NC(=O)[C@@H](NC(=O)CNC(=O)[C@H](Cc1c[nH]cn1)NC(=O)[C@H](CO)NC(=O)[C@@H](N)Cc1c[nH]cn1)[C@@H](C)O)[C@@H](C)O)C(=O)N[C@@H](C)C(=O)N[C@@H](C)C(=O)N[C@@H](Cc1c[nH]cn1)C(=O)N[C@@H](CCC(=O)O)C(=O)N[C@@H](Cc1ccccc1)C(=O)N[C@H](C(=O)N[C@@H](CCC(=O)O)C(=O)N[C@@H](Cc1c[nH]c2ccccc12)C(=O)N[C@@H](CC(C)C)C(=O)N[C@@H](CCC(=O)O)C(=O)N[C@@H](CO)C(=O)N[C@@H](C)C(=O)O)[C@@H](C)CC)C(=O)O [Compound 18, H-HSHGTFTSDYSKYLEE-K(Hexadecanoyl-isoGlu)-AAHEFIEWLESA-OH] (H-HSHGTFTSDYSKYLEEK([γGlu-Palmitoyl])AAHEFIEWLESA-OH)
